In paper PMC2744016, “Adenosine Triphosphate Stimulates Aquifex aeolicus MutL Endonuclease Activity” (PLoS ONE, 2009):

Experiments:
[1] = molecular target: T1, Aae MutL (Aquifex aeolicus, UniProt O67518); assay: initial rate of supercoiled pBR322 nicking, agarose gel; format: biochemical; conditions: 1 mM AMPPNP, 1 mM MnSO4, pH 7.6, 37 °C; activator
T1 construct: full-length (C-terminal domain residues 303-425), expressed in E. coli Rosetta (DE3) from pTWIN1 as Mxe GyrA intein fusion, intein tag cleaved off
T1 sequence (O67518 1-425): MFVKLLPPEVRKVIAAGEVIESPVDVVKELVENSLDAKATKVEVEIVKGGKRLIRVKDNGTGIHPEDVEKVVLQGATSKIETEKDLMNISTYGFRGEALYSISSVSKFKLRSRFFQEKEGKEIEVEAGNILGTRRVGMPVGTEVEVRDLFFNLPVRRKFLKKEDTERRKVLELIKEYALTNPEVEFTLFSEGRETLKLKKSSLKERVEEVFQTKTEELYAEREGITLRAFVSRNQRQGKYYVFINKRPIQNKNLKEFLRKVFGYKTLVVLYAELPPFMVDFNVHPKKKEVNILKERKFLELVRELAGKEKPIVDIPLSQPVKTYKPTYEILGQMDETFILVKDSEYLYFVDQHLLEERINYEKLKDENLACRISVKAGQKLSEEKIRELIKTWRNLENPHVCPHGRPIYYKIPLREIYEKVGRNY

[2] = molecular target: T1, Aae MutL; assay: filter-binding assay with 3H nucleotide; conditions: labelled compound; no DNA, ssDNA or dsDNA M13mp18; 10 mM MgCl2, 50 mM NaCl, pH 7.9, room temperature

Row | SMILES | initial rate of supercoiled pBR322 nicking, agarose gel [1] | filter-binding assay with 3H nucleotide [2]
1 | Nc1ncnc2c1ncn2[C@@H]1O[C@H](COP(=O)(O)OP(=O)(O)NP(=O)(O)O)[C@@H](O)[C@H]1O [AMPPNP] | AMPPNP stimulated Aae MutL nicking activity to the same extent as observed with ATP | 
2 | Nc1ncnc2c1ncn2[C@@H]1O[C@H](COP(=O)(O)OP(=O)(O)O)[C@@H](O)[C@H]1O [ADP] |  | in the presence of ssDNA MutL binds both ATP and ADP with about equal affinity
3 | Nc1ncnc2c1ncn2[C@@H]1O[C@H](COP(=O)(O)OP(=O)(O)OP(=O)(O)O)[C@@H](O)[C@H]1O [ATP] |  | in the presence of ssDNA MutL binds both ATP and ADP with about equal affinity
